From patent publication US11220503B2, “Phthalazine derivatives, preparation method, pharmaceutical composition and usage thereof” (Shanghai SIMR Biotech Co., Ltd., priority 2015, dated 2022)

Molecular target: T1, α5β3γ2 receptor (Homo sapiens, UniProt P18507+P31644)
T1 construct: expressed in transfected cells; host or cells: HEK-293 (stably transfected)
Assay: Supplementary data for cell level screening: new electrophysiology method (I. Lecker et al)
Format: cell-based
Details: for Inverse agonism efficacy(%): new method, CsCl intracellular solution, GABA 0.1˜0.3 CM, other procedures as previous method; for inverse agonism efficacy of the compound/α5IA inverse agonism efficacy: ratio to the α5IA reference run above in the table (r4 or r29)

T1 sequence (P31644 32-462): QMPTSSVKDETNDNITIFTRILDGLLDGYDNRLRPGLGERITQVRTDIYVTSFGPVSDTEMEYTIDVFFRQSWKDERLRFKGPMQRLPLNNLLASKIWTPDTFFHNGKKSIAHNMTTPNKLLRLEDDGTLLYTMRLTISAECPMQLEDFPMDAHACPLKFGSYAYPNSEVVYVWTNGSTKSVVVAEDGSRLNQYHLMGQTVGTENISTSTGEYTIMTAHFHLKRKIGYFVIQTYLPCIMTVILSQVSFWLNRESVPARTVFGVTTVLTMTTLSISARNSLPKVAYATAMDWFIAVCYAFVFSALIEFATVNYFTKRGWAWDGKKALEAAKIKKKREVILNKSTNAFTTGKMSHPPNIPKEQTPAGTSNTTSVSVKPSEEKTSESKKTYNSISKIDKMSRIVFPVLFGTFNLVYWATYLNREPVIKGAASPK
T1 sequence (P28472 26-473 isoform P28472-2 partner limits assumed): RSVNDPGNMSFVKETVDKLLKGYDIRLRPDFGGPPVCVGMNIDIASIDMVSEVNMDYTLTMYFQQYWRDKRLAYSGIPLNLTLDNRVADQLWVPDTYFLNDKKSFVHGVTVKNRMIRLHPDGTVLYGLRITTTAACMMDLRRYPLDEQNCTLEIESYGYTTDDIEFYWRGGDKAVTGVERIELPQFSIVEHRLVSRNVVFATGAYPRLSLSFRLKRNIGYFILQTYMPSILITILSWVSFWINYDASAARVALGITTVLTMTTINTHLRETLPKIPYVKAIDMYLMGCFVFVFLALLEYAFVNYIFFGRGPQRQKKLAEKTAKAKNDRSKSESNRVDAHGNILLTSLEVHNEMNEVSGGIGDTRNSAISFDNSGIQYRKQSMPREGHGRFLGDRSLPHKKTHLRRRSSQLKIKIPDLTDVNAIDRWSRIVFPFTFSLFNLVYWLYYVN
T1 sequence (P18507 40-475): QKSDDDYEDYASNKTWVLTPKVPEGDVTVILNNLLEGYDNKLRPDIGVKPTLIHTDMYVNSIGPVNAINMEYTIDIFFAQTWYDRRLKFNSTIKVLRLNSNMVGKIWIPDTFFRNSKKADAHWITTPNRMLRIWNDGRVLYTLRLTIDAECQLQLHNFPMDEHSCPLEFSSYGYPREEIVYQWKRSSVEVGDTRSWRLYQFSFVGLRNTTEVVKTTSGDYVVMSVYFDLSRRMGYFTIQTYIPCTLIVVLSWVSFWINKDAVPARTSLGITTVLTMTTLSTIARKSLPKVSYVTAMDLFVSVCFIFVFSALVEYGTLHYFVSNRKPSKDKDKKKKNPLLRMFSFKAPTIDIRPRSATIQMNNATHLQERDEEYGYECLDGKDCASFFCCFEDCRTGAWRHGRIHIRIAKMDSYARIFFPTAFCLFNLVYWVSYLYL

Inverse agonism efficacy(%) | inverse agonism efficacy of the compound/α5IA inverse agonism efficacy | SMILES
−21.1667 | 1.219 | CCNC(=O)c1ccc(COc2nn3c(-c4cc(C)on4)nnc3c3ccccc23)nc1 [Compound 07, N-ethyl-6-(((3-(5-methylisoxazol-3-yl)-[1,2,4]triazolo[3,4-a]phthalazin-6-yl)oxy)methyl)nicotinamide]
−35.375 | 1.902 | COCCNC(=O)c1ccc(COc2nn3c(-c4cc(C)on4)nnc3c3ccccc23)nc1 [Compound 08, N-(2-methoxyethyl)-6-(((3-(5-methylisoxazol-3-yl)-[1,2,4]triazolo[3,4-a]phthalazin-6-yl)oxy)methyl)nicotinamide]
